Source: patent US20260285853A1, “COMPOUNDS AND METHODS FOR MODULATING SPLICING” (REMIX THERAPEUTICS INC., priority 2023, published 2026)
pIC50: −log10 of the molar value. Like-named read-outs stand apart in the source and are kept apart here.

Assays:
Type in all cases: cell-based
[1] = tested on: HTT mRNA; experiment: Splicing RT-qPCR assay (THP), Table 2A
[2] = tested on: MYB mRNA; experiment: Splicing RT-qPCR assay (THP), Table 2A
[3] = tested on: HTT mRNA; experiment: Gene panel canonical junction qPCR assay, decrease in CJ mRNA, Table 3
Method in brief: (§1)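 A673 (DMEM, 10% FBS, 15,000 cells/well) or K562 (IMDM, 10% FBS) cells treated 24 h at 37 °C with 11-point 3-fold dilutions, top 10 uM, DMSO ≤0.25%. Canonical exon-exon junction mRNA measured by RT-qPCR, normalized to GAPDH, GUSB or PPIA and DMSO (ΔΔCt); IC50 from 4-parameter logistic fit.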

[4] = tested on: MYB mRNA; experiment: as above
Method in brief: as §1

[5] = tested on: SH-SY5Y (human neuroblastoma) cells; experiment: Cell viability, Cell Titer Glo 2.0 assay; conditions: read-out: Viability SHSY5Y.3 GI50
Method in brief: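 Toxicity screen in SH-SY5Y cells. Compounds were serially diluted in DMSO and then in medium, giving 0.1% DMSO final. Viability was read with CellTiter-Glo 2.0 after 72 h at 37 °C, 5% CO2, against medium-only blank wells.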

[6] = Table 2A (THP), AJ mRNA increase, read-out: HTT AJ (increase in alternative junction mRNA, AC50)
[7] = Table 2A (THP), CJ mRNA decrease, read-out: HTT CJ (decrease in canonical junction mRNA, IC50)
[8] = Table 2A (THP), AJ mRNA increase, read-out: MYB AJ (increase in alternative junction mRNA, AC50)
[9] = Table 2A (THP), CJ mRNA decrease, read-out: MYB CJ (decrease in canonical junction mRNA, IC50)
[10] = decrease in canonical junction (CJ) mRNA, gene panel qPCR, Table 3
[11] = Table 2A, THP, HTT alternative junction (AJ) mRNA, read-out: HTT AJ (AC50, increase in alternative junction mRNA)
[12] = Table 2A, THP, HTT canonical junction (CJ) mRNA, read-out: HTT CJ (IC50, decrease in canonical junction mRNA)
[13] = Table 2A, THP, MYB alternative junction (AJ) mRNA, read-out: MYB AJ (AC50, increase in alternative junction mRNA)
[14] = Table 2A, THP, MYB canonical junction (CJ) mRNA, read-out: MYB CJ (IC50, decrease in canonical junction mRNA)
[15] = decrease in CJ mRNA levels, canonical junction qPCR, gene panel

CNC1CCC(Oc2ccc(C(=O)Nc3cc4cn(C)nc4cc3OC)c3nn(C)cc23)CC1 (stereo not drawn) [Compound 595]
AC50 [1, 6]: > 10 µM | pIC50 [1, 7]: 5.00 to 6.00 | AC50 [2, 8]: > 10 µM | pIC50 [2, 9]: < 5.00 | pIC50 [3, 10]: 5.00 to 6.00 | pIC50 [4, 10]: < 5.00 | GI50 [5]: 1 to 10 µM

CNC1CCCC(Oc2ccc(C(=O)Nc3cc4cn(C)nc4cc3OC)c3nn(C)cc23)C1 (stereo not drawn) [Compound 596]
AC50 [1, 6]: 1 to 10 µM | pIC50 [1, 7]: 5.00 to 6.00 | AC50 [2, 8]: 1 to 10 µM | pIC50 [2, 9]: 5.00 to 6.00 | pIC50 [3, 10]: 5.00 to 6.00 | pIC50 [4, 10]: 5.00 to 6.00 | GI50 [5]: 1 to 10 µM

Cc1cc2c(nc(NC(=O)c3ccc(N4CCC(NC5CC5)CC4)c4cn(C)nc34)n2C)c(C)n1 [Compound 597, 4-[4-(cyclopropylamino)-1-piperidyl]-2-methyl-N-(1,4,6-trimethylimidazo[4,5-c]-pyridin-2-yl)indazole-7-carboxamide]
AC50 [1, 6]: > 10 µM | pIC50 [1, 7]: < 5.00 | AC50 [2, 8]: > 10 µM | pIC50 [2, 9]: < 5.00 | pIC50 [3, 10]: < 5.00 | pIC50 [4, 10]: < 5.00 | GI50 [5]: 1 to 10 µM

COc1nc2nccn2cc1NC(=O)c1ccc(N2CCC(NC3CC3)CC2)c2cn(C)nc12 [Compound 598, 4-[4-(cyclopropylamino)-1-piperidyl]-N-(7-methoxy-imidazo[1,2-a]pyrimidin-6-yl)-2-methyl-indazole-7-carboxamide]
AC50 [1, 6]: > 10 µM | pIC50 [1, 7]: < 5.00 | AC50 [2, 8]: 1 to 10 µM | pIC50 [2, 9]: 5.00 to 6.00 | pIC50 [3, 10]: < 5.00 | pIC50 [4, 10]: 5.00 to 6.00 | GI50 [5]: 1 to 10 µM

Cc1cn2cc(NC(=O)c3ccc(N4CCC(NC5CC5)CC4)c4cn(C)nc34)nc2c(CN(C)C)n1 [Compound 600, 4-(4-(cyclopropylamino)piperidin-1-yl)-N-(8-((dimethylamino)methyl)-6-methylimidazo[1,2-a]pyrazin-2-yl)-2-methyl-2H-indazole-7-carboxamide bis(2,2,2-trifluoroacetate)]
AC50 [1, 11]: > 10 µM | pIC50 [1, 12]: < 5.00 | AC50 [2, 13]: > 10 µM | pIC50 [2, 14]: < 5.00 | pIC50 [3, 10]: < 5.00 | pIC50 [4, 10]: < 5.00 | GI50 [5]: 1 to 10 µM

Cc1cn2cc(NC(=O)c3ccc(N4CCCC(OC5CNC5)C4)c4cn(C)nc34)nc2c(C)n1 (stereo not drawn) [Compound 601]
AC50 [1, 11]: > 10 µM | pIC50 [1, 12]: < 5.00 | AC50 [2, 13]: 1 to 10 µM | pIC50 [2, 14]: < 5.00 | pIC50 [3, 10]: < 5.00 | pIC50 [4, 10]: < 5.00 | GI50 [5]: > 10 µM

COc1cc2nn(C)cc2cc1NC(=O)c1ccc(N2CCCC(OC3CNC3)C2)c2cn(C)nc12 (stereo not drawn) [Compound 602]
AC50 [1, 11]: > 10 µM | pIC50 [1, 12]: < 5.00 | AC50 [2, 13]: > 10 µM | pIC50 [2, 14]: < 5.00 | pIC50 [3, 10]: < 5.00 | pIC50 [4, 10]: < 5.00 | GI50 [5]: > 10 µM

CNC1CCC(Oc2ccc(C(=O)Nc3cc4cn(C)nc4cc3OC)c3nn(C)cc23)C1 (stereo not drawn) [Compound 603]
AC50 [1, 11]: 1 to 10 µM | pIC50 [1, 12]: 5.00 to 6.00 | AC50 [2, 13]: 0.1 to 1 µM | pIC50 [2, 14]: 6.00 to 7.00 | pIC50 [3, 10]: 5.00 to 6.00 | pIC50 [4, 10]: 6.00 to 7.00 | GI50 [5]: 1 to 10 µM

CCNC1CCN(c2ccc(C(=O)Nc3cn4cc(C)nc(C)c4n3)c3nn(C)cc23)CC1C (stereo not drawn) [Compound 604]
AC50 [1, 11]: > 10 µM | pIC50 [1, 12]: 5.00 to 6.00 | AC50 [2, 13]: 1 to 10 µM | pIC50 [2, 14]: < 5.00 | pIC50 [3, 10]: 5.00 to 6.00 | pIC50 [4, 10]: < 5.00 | GI50 [5]: 1 to 10 µM

CCNC1CCN(c2ccc(C(=O)Nc3cc4cn(C)nc4cc3OC)c3nn(C)cc23)CC1C (stereo not drawn) [Compound 605]
AC50 [1, 11]: 1 to 10 µM | pIC50 [1, 12]: < 5.00 | AC50 [2, 13]: 0.1 to 1 µM | pIC50 [2, 14]: 6.00 to 7.00 | pIC50 [3, 10]: < 5.00 | pIC50 [4, 10]: 6.00 to 7.00 | GI50 [5]: 1 to 10 µM

COc1nc2nc(C)cn2cc1NC(=O)c1cnc(N2CCC(NC3CC3)CC2)c2cn(C)nc12 [Compound 608, 4-[4-(cyclopropylamino)-1-piperidyl]-N-(7-methoxy-2-methyl-imidazo[1,2-a]-pyrimidin-6-yl)-2-methyl-pyrazolo-[4,3-c]pyridine-7-carboxamide]
AC50 [1, 11]: < 0.1 µM | pIC50 [1, 12]: 6.00 to 7.00 | AC50 [2, 13]: < 0.1 µM | pIC50 [2, 14]: > 7.00 | pIC50 [3, 15]: 6.00 to 7.00 | pIC50 [4, 15]: > 7.00 | GI50 [5]: 0.1 to 1 µM

Cc1cn2cc(NC(=O)c3cnc(N4CCC(NC5CC5)CC4)c4cn(C)nc34)nc2c(C)n1 [Compound 609, 4-[4-(cyclopropylamino)-1-piperidyl]-N-(6,8-dimethylimidazo [1,2-a]pyrazin-2-yl)-2-methyl-pyrazolo[4,3-c]pyridine-7-carboxamide]
AC50 [1, 11]: > 10 µM | pIC50 [1, 12]: < 5.00 | AC50 [2, 13]: < 0.1 µM | pIC50 [2, 14]: 6.00 to 7.00 | pIC50 [3, 15]: < 5.00 | pIC50 [4, 15]: 6.00 to 7.00 | GI50 [5]: > 10 µM

Cc1cn2cc(NC(=O)c3ccc(NC(=O)c4ncc[nH]4)c4[nH]cnc34)cc(F)c2n1 [Compound 610, 2,2,2-trifluoroacetate]
AC50 [1, 11]: > 10 µM | pIC50 [1, 12]: < 5.00 | AC50 [2, 13]: > 10 µM | pIC50 [2, 14]: < 5.00 | pIC50 [3, 15]: < 5.00 | pIC50 [4, 15]: < 5.00 | GI50 [5]: > 10 µM

CCNC1CCN(c2ccc(C(=O)Nc3cn4cc(C)nc(C)c4n3)c3nc(C)cn23)CC1 [Compound 612, N-(6,8-dimethyl-imidazo-[1,2-a]pyrazin-2-y1)-5-[4-(ethylamino)-1-piperidyl]-2-methyl-imidazo[1,2-a]pyridine-8-carboxamide]
AC50 [1, 11]: > 10 µM | pIC50 [1, 12]: < 5.00 | AC50 [2, 13]: 0.1 to 1 µM | pIC50 [2, 14]: 6.00 to 7.00 | pIC50 [3, 15]: < 5.00 | pIC50 [4, 15]: 6.00 to 7.00 | GI50 [5]: 1 to 10 µM

Cc1cn2cc(NC(=O)c3ccc(NC(=O)C4CCCN4)c4[nH]cnc34)cc(F)c2n1 (stereo not drawn) [Compound 613, N-(8-fluoro-2-methyl-imidazo[1,2-a]pyridin-6-yl)-7-(pyrrolidine-2-carbonylamino)-1H-benzimidazole-4-carboxamide]
AC50 [1, 11]: > 10 µM | pIC50 [1, 12]: 5.00 to 6.00 | AC50 [2, 13]: 1 to 10 µM | pIC50 [2, 14]: 5.00 to 6.00 | pIC50 [3, 15]: 5.00 to 6.00 | pIC50 [4, 15]: 5.00 to 6.00 | GI50 [5]: > 10 µM

Cc1cn2cc(NC(=O)c3ccc(NC(=O)C4CCNC4)c4[nH]cnc34)cc(F)c2n1 (stereo not drawn) [Compound 614, N-(8-fluoro-2-methyl-imidazo[1,2-a]pyridin-6-yl)-7-(pyrrolidine-3-carbonylamino)-1H-benzimidazole-4-carboxamide]
AC50 [1, 11]: > 10 µM | pIC50 [1, 12]: 5.00 to 6.00 | AC50 [2, 13]: 1 to 10 µM | pIC50 [2, 14]: 5.00 to 6.00 | pIC50 [3, 15]: 5.00 to 6.00 | pIC50 [4, 15]: 5.00 to 6.00 | GI50 [5]: > 10 µM

CCNC1CCN(c2ccc(C(=O)Nc3cn4cc(C)nc(C)c4n3)n3nc(C)cc23)CC1 [Compound 615, N-(6,8-dimethylimidazo[1,2-a]-pyrazin-2-y1)-4-[4-(ethylamino)-1-piperidyl]-2-methyl-pyrazolo[1,5-a]-pyridine-7-carboxamide]
AC50 [1, 11]: 1 to 10 µM | pIC50 [1, 12]: 5.00 to 6.00 | AC50 [2, 13]: 1 to 10 µM | pIC50 [2, 14]: 6.00 to 7.00 | pIC50 [3, 15]: 5.00 to 6.00 | pIC50 [4, 15]: 6.00 to 7.00 | GI50 [5]: 1 to 10 µM

Cc1cn2cc(NC(=O)c3ccc(N4CCC(NC5CC5)CC4)c4cc(CO)nn34)nc2c(C)n1 [Compound 616, 4-[4-(cyclopropylamino)-1-piperidyl]-N-(6,8-dimethylimidazo[1,2-a]pyrazin-2-yl)-2-(hydroxymethyl) pyrazolo[1,5-a]-pyridine-7-carboxamide]
AC50 [1, 11]: 1 to 10 µM | pIC50 [1, 12]: 5.00 to 6.00 | AC50 [2, 13]: 1 to 10 µM | pIC50 [2, 14]: 5.00 to 6.00 | pIC50 [3, 15]: 5.00 to 6.00 | pIC50 [4, 15]: 5.00 to 6.00 | GI50 [5]: 1 to 10 µM
